{"source": "patent US20260027128A1", "about": "(priority 2016, published 2026)", "key": {"[1]": {"test": "Plasma analysis and pharmacokinetics in Gottingen minipigs after intranasal administration (Example 4)", "conditions": "for bioavailability: Bioavailability (0-tlast), intranasal, minipig No. 2; for Cmax: Cmax of Remimazolam"}, "male rats [2]": {"system": "male rats", "test": "Clinical observations in rats after intranasal or IV remimazolam (Example 1)", "assay_type": "in vivo, rat", "conditions": "intranasal dosing"}, "Gottingen minipigs [3]": {"system": "Gottingen minipigs", "test": "Sedative effect score in Gottingen minipigs after single intranasal administration (Example 4)", "assay_type": "in vivo, minipig"}, "[4]": {"conditions": "study 32236, female minipigs, intravenous infusion 120 mg/kg; cited from earlier work"}, "[5]": {"conditions": "study Y08AG004, micropigs, cited from earlier work"}, "[6]": {"test": "Solubility of remimazolam in inhalation vehicle (Example 2)", "conditions": "concentrations >25 mg/mL"}, "[7]": {"test": "Plasma levels of Remimazolam and its main metabolite CNS7054 in rats (Example 1)"}, "male rats [8]": {"system": "male rats", "test": "Tolerability in rats: mortality, body weight, Irwin observations, body temperature, pupil size, gross pathology (Example 1)"}, "[9]": {"test": "Systemic and local tolerability (clinical signs, rhinoscopy, NOAEL) in Gottingen minipigs, single intranasal administration (Example 4)", "conditions": "female, Gottingen, minipig, in vivo, inhaled or intranasal, 25 mg/animal"}, "Gottingen minipigs [10]": {"system": "Gottingen minipigs", "test": "Systemic and local tolerability (clinical signs, rhinoscopy, NOAEL) in Gottingen minipigs, single intranasal administration (Example 4)", "conditions": "minipigs"}, "[11]": {"conditions": "minipig animal no. 2, intranasal 25 mg"}, "[12]": {"conditions": "intranasal 25 mg Remimazolam/animal"}}, "note": "Where two headings read alike, the source gives them in different places.", "data": [{"smiles": "Cc1cnc2n1-c1ccc(Br)cc1C(c1ccccn1)=N[C@H]2CCC(=O)O", "note": "[CNS7054]", "values": [{"measurement": "tmax of the metabolite (CNS7054)", "setting": "[1]; minipig animal no. 2, intranasal 25 mg Remimazolam", "value": 15, "unit": "min"}, {"measurement": "tmax of the metabolite (CNS7054)", "setting": "[1]; minipig animal nos. 1 and 3, intranasal 25 mg Remimazolam", "value": 60, "unit": "min"}, {"measurement": "Plasma level of metabolite CNS7054, GLP-validated method", "setting": "[1]; minipigs, intranasal 25 mg Remimazolam, below LLOQ", "value": "< 100", "unit": "ng/mL"}]}, {"smiles": "COC(=O)CC[C@@H]1N=C(c2ccccn2)c2cc(Br)ccc2-n2c(C)cnc21", "note": "[Remimazolam, methyl 3-[(4S)-8-bromo-1-methyl-6-(pyridin-2-yl)-4H-imidazo[1,2-a][1,4]benzodiazepin-4-yl]propanoate]", "values": [{"measurement": "Time clinical observations were present following dosing", "setting": "male rats [2]", "value": "up to 15 min"}, {"measurement": "Sedative effects lasting up to", "setting": "Gottingen minipigs [3]; [11]", "value": "up to 30 minutes"}, {"measurement": "Start of sedative effects after administration", "setting": "Gottingen minipigs [3]; [11]", "value": 5, "unit": "min"}, {"measurement": "Time of maximum sedative effect", "setting": "Gottingen minipigs [3]; [11]", "value": 10, "unit": "minutes p.a."}, {"measurement": "Sedative effect", "setting": "Gottingen minipigs [3]; minipig animal nos. 1 and 3, intranasal 25 mg, scores of zero recorded", "value": "not affected"}, {"measurement": "AUC0-last", "setting": "[4]", "value": 18215.23, "unit": "ng·h/mL"}, {"measurement": "AUC0-last/Dose", "setting": "[4]", "value": 151.79, "unit": "ng·kg·h/mL/mg"}, {"measurement": "AUC0-last (data are for 0→∞)", "setting": "[5]; intravenous bolus 1 mg/kg", "value": "293.3^2 ng*h/ml"}, {"measurement": "AUC0-last/Dose (data are for 0→∞)", "setting": "[5]; intravenous bolus 1 mg/kg", "value": "293.3^2 ng*h*kg/ml/mg"}, {"measurement": "AUC0-last (data are for 0→∞)", "setting": "[5]; intravenous infusion 2.4 mg/kg", "value": "676.7^2 ng*h/ml"}, {"measurement": "AUC0-last/Dose (data are for 0→∞)", "setting": "[5]; intravenous infusion 2.4 mg/kg", "value": "282.9^2 ng*h*kg/ml/mg"}, {"measurement": "Solubility in a reasonable inhalation vehicle", "setting": "[6]", "value": "could not be tested due to lack of solubility in a reasonable vehicle"}, {"measurement": "Systemic exposure following intranasal administration", "setting": "[7]", "value": "systemically exposed"}, {"measurement": "AUC(0-t)", "setting": "[1]; female, Gottingen, minipig, plasma, inhaled or intranasal, 1.25 mg/kg, AUC0-last, present study (33659), minipig No. 2 (bw 20 kg), intranasal 1.25 mg/kg", "value": 19.9, "unit": "ng·h/mL"}, {"measurement": "bioavailability", "setting": "[1]; female, Gottingen, minipig, plasma, inhaled or intranasal, 1.25 mg/kg, reference Y08AG004 bolus (micropigs)", "value": 5.43, "unit": "%"}, {"measurement": "bioavailability", "setting": "[1]; female, Gottingen, minipig, plasma, inhaled or intranasal, 1.25 mg/kg, reference Y08AG004 infusion (micropigs)", "value": 5.63, "unit": "%"}, {"measurement": "Tmax", "setting": "[1]; female, Gottingen, minipig, plasma, inhaled or intranasal, 25 mg", "value": 15, "unit": "min"}, {"measurement": "AUC(0-t)", "setting": "[1]; female, Gottingen, minipig, plasma, inhaled or intranasal, 25 mg, AUC0->last of Remimazolam, minipig animal no. 2, intranasal 25 mg", "value": "~20", "unit": "ng·h/mL"}, {"measurement": "AUC(0-t)", "setting": "[1]; female, Gottingen, minipig, plasma, inhaled or intranasal, 25 mg, AUC0->last of Remimazolam, minipig animal no. 3, intranasal 25 mg", "value": 7, "unit": "ng·h/mL"}, {"measurement": "Cmax", "setting": "[1]; female, Gottingen, minipig, plasma, inhaled or intranasal, 25 mg, minipig animal no. 1, intranasal 25 mg, extrapolated below LLOQ", "value": 17.4, "unit": "ng/mL"}, {"measurement": "Cmax", "setting": "[1]; female, Gottingen, minipig, plasma, inhaled or intranasal, 25 mg, minipig animal no. 2, intranasal 25 mg, within GLP-validated range", "value": 50.4, "unit": "ng/mL"}, {"measurement": "Cmax", "setting": "[1]; female, Gottingen, minipig, plasma, inhaled or intranasal, 25 mg, minipig animal no. 3, intranasal 25 mg, extrapolated below LLOQ", "value": "≤ 8.6", "unit": "ng/mL"}, {"measurement": "bioavailability", "setting": "[1]; female, Gottingen, minipig, plasma, other: intranasal, 1.25 mg/kg, reference study 32236 (IV infusion, minipigs)", "value": 10.5, "unit": "%"}, {"measurement": "concentration at 0.25 h", "setting": "[1]; female, Gottingen, minipig, plasma, other: intranasal, 25 mg/animal", "value": 50.4, "unit": "ng/mL"}, {"measurement": "bioavailability", "setting": "[1]; female, Gottingen, minipig, plasma, other: intranasal, 25 mg/animal, reference study 32236 (IV infusion, minipigs)", "value": 10, "unit": "%"}, {"measurement": "Plasma level of Remimazolam (CNS7056), GLP-validated method", "setting": "[1]; minipigs, intranasal 25 mg, all samples except animal no. 2 at 0.25 hours p.a., below LLOQ", "value": "< 20", "unit": "ng/mL"}, {"measurement": "AUC0-last/Dose", "setting": "[1]; present study (33659), minipig No. 2, intranasal 1.25 mg/kg", "value": "15.94^1 ng*h*kg/ml/mg"}, {"measurement": "Gross pathology", "setting": "male rats [8]; male rats, Part B necropsy", "value": "No test item-related gross findings were noted"}, {"measurement": "Tolerability of intranasal administration", "setting": "male rats [8]; rats", "value": "well tolerated"}, {"measurement": "NOAEL", "setting": "[9]", "value": "≥ 1.25", "unit": "mg/kg"}, {"measurement": "NOAEL for local tolerability (nasal mucosa)", "setting": "Gottingen minipigs [10]; dry drug product powder into one nostril", "value": "≥ 25", "unit": "mg/animal"}, {"measurement": "Body weight", "setting": "Gottingen minipigs [10]; [12]", "value": "No test item-related influence on the body weight was observed"}, {"measurement": "Clinical signs", "setting": "Gottingen minipigs [10]; [12]", "value": "No test item-related changes in behavior (except for sedation, see below) or external appearance were observed"}, {"measurement": "Food and drinking water consumption", "setting": "Gottingen minipigs [10]; [12]", "value": "No test item-related influence was noted"}, {"measurement": "Mortality", "setting": "Gottingen minipigs [10]; [12]", "value": "None of the animals died"}, {"measurement": "Rhinoscopy: changes of the nasal mucosa (erythema, eschar or oedema formation)", "setting": "Gottingen minipigs [10]; nasal 25 mg Remimazolam/animal", "value": "No test item-related changes of the nasal mucosa"}]}]}
